Key:
Format in all cases: in vivo
[1] = system: Galium aparine; experiment: Post-emergence test, weed control; conditions: 2–4 weeks after treatment, rating 0-100 (100=death), Table 5
Experimental: (§1) These acetone solutions are diluted with water and the resulting formulations applied at dosage levels equivalent of about 0.030 to 0.240 kg per hectare of test compound per pot. After spraying the plants are placed an greenhouse benches and are cared for in the usual manner, commensurate with conventional greenhouse practices. From 2 to 4 weeks after treatment, the seedling plants are examined and rated according to the rating system provided above. A rating 0 indicates growth as untreated control, a rating 100 indicates death.

[2] = system: VIOAR; experiment: Post-emergence test, weed control; conditions: 2–4 weeks after treatment, rating 0-100 (100=death), Table 5
Experimental: as §1

[3] = system: Polygonum convolvulus; experiment: Post-emergence test, weed control; conditions: 2–4 weeks after treatment, rating 0-100 (100=death), Table 5
Experimental: as §1

[4] = system: Stellaria media; experiment: Post-emergence test, weed control; conditions: 2–4 weeks after treatment, rating 0-100 (100=death), Table 5
Experimental: as §1

[5] = system: Matricaria inodora; experiment: Post-emergence test, weed control; conditions: 2–4 weeks after treatment, rating 0-100 (100=death), Table 5
Experimental: as §1

[6] = system: Setaria viridis; experiment: Post-emergence test, weed control; conditions: 2–4 weeks after treatment, rating 0-100 (100=death), Table 5
Experimental: as §1

[7] = system: Lamium purpureum; experiment: Post-emergence test, weed control; conditions: 2–4 weeks after treatment, rating 0-100 (100=death), Table 5
Experimental: as §1

[8] = system: Triticum aestivum variety “Kanzler”; experiment: Post-emergence test, selectivity; conditions: 2–4 weeks after treatment, rating 0-100 (100=death), Table 6
Experimental: as §1

[9] = system: Triticum aestivum variety “Monopol”; experiment: Post-emergence test, selectivity; conditions: 2–4 weeks after treatment, rating 0-100 (100=death), Table 6
Experimental: as §1

[10] = system: Galium aparine; experiment: Pre-emergence test, weed control; conditions: 3 weeks after treatment, rating 0-100 (100=death), Table 1
Summary of the method: (§2)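 Compound in acetone with 0.4% w/w alkylphenol/ethylene oxide condensate, diluted in water, was sprayed onto horticultural loam freshly sown with seeds. Rates were 15, 30, 60, 120 or 240 g active/ha in 900 l/ha. Effects were scored visually at three weeks on a 0–100 scale (0 = as untreated sown soil, 100 = death).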

[11] = system: Poa annua; experiment: Pre-emergence test, weed control; conditions: 3 weeks after treatment, rating 0-100 (100=death), Table 1
Summary of the method: as §2

[12] = system: Veronica persica; experiment: Pre-emergence test, weed control; conditions: 3 weeks after treatment, rating 0-100 (100=death), Table 1
Summary of the method: as §2

[13] = system: Lolium perenne; experiment: Pre-emergence test, weed control; conditions: 3 weeks after treatment, rating 0-100 (100=death), Table 1
Summary of the method: as §2

[14] = system: Polygonum convolvulus; experiment: Pre-emergence test, weed control; conditions: 3 weeks after treatment, rating 0-100 (100=death), Table 1
Summary of the method: as §2

[15] = system: Stellaria media; experiment: Pre-emergence test, weed control; conditions: 3 weeks after treatment, rating 0-100 (100=death), Table 1
Summary of the method: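 Visual 0–100 rating, three weeks after treatment, where 0 equals untreated sown soil and 100 means plant death. Sown horticultural loam received an aqueous dilution of acetone solution (0.4% w/w alkylphenol/ethylene oxide condensate) at 15–240 g/ha, 900 l/ha spray volume.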

[16] = system: Apera spica-venti; experiment: Pre-emergence test, weed control; conditions: 3 weeks after treatment, rating 0-100 (100=death), Table 1
Summary of the method: as §2

[17] = system: Matricaria inodora; experiment: Pre-emergence test, weed control; conditions: 3 weeks after treatment, rating 0-100 (100=death), Table 1
Summary of the method: as §2

[18] = system: Alopecurus myosuroides; experiment: Pre-emergence test, weed control; conditions: 3 weeks after treatment, rating 0-100 (100=death), Table 1
Summary of the method: as §2

[19] = system: Setaria viridis; experiment: Pre-emergence test, weed control; conditions: 3 weeks after treatment, rating 0-100 (100=death), Table 1
Summary of the method: as §2

[20] = system: Lamium purpureum; experiment: Pre-emergence test, weed control; conditions: 3 weeks after treatment, rating 0-100 (100=death), Table 1
Summary of the method: as §2

Cc1cnc(-c2ccc(C(F)(F)F)cc2)nc1Oc1cccc(C(F)(F)F)c1 [REF-1]
GALAP weed control rating ([1]; 0.030 kg/ha): 80 | GALAP weed control rating ([1]; 0.060 kg/ha): 85 | GALAP weed control rating ([1]; 0.120 kg/ha): 92 | GALAP weed control rating ([1]; 0.240 kg/ha): 92 | VIOAR weed control rating ([2]; 0.030 kg/ha): 92 | VIOAR weed control rating ([2]; 0.060 kg/ha): 93 | VIOAR weed control rating ([2]; 0.120 kg/ha): 93 | VIOAR weed control rating ([2]; 0.240 kg/ha): 95 | POLCO weed control rating ([3]; 0.030 kg/ha): 15 | POLCO weed control rating ([3]; 0.120 kg/ha): 25 | POLCO weed control rating ([3]; 0.240 kg/ha): 70 | STEME weed control rating ([4]; 0.030 kg/ha): 80 | STEME weed control rating ([4]; 0.060 kg/ha): 90 | STEME weed control rating ([4]; 0.120 kg/ha): 92 | STEME weed control rating ([4]; 0.240 kg/ha): 92 | MATIN weed control rating ([5]; 0.030 kg/ha): 70 | MATIN weed control rating ([5]; 0.060 kg/ha): 75 | MATIN weed control rating ([5]; 0.120 kg/ha): 75 | MATIN weed control rating ([5]; 0.240 kg/ha): 85 | SETVI weed control rating ([6]; 0.030 kg/ha): 99 | SETVI weed control rating ([6]; 0.060 kg/ha): 99 | SETVI weed control rating ([6]; 0.120 kg/ha): 100 | SETVI weed control rating ([6]; 0.240 kg/ha): 100 | LAMPU weed control rating ([7]; 0.030 kg/ha): 93 | LAMPU weed control rating ([7]; 0.060 kg/ha): 93 | LAMPU weed control rating ([7]; 0.120 kg/ha): 93 | LAMPU weed control rating ([7]; 0.240 kg/ha): 93 | TRZAWK rating (Selectivity) ([8]; 0.03 kg/ha): 18 | TRZAWK rating (Selectivity) ([8]; 0.06 kg/ha): 25 | TRZAWK rating (Selectivity) ([8]; 0.12 kg/ha): 30 | TRZAWK rating (Selectivity) ([8]; 0.24 kg/ha): 40 | TRZAWM rating (Selectivity) ([9]; 0.03 kg/ha): 15 | TRZAWM rating (Selectivity) ([9]; 0.06 kg/ha): 22 | TRZAWM rating (Selectivity) ([9]; 0.12 kg/ha): 30 | TRZAWM rating (Selectivity) ([9]; 0.24 kg/ha): 45 | GALAP weed control rating ([10]; 0.015 kg/ha): 5 | GALAP weed control rating ([10]; 0.030 kg/ha): 15 | GALAP weed control rating ([10]; 0.060 kg/ha): 50 | GALAP weed control rating ([10]; 0.1 kg/ha): 75 | GALAP weed control rating ([10]; 0.240 kg/ha): 95 | POAAN weed control rating ([11]; 0.015 kg/ha): 98 | POAAN weed control rating ([11]; 0.030 kg/ha): 100 | POAAN weed control rating ([11]; 0.060 kg/ha): 100 | POAAN weed control rating ([11]; 0.1 kg/ha): 100 | POAAN weed control rating ([11]; 0.240 kg/ha): 100 | VERPE weed control rating ([12]; 0.015 kg/ha): 100 | VERPE weed control rating ([12]; 0.030 kg/ha): 100 | VERPE weed control rating ([12]; 0.060 kg/ha): 100 | VERPE weed control rating ([12]; 0.1 kg/ha): 100 | VERPE weed control rating ([12]; 0.240 kg/ha): 100 | LOLPE weed control rating ([13]; 0.015 kg/ha): 80 | LOLPE weed control rating ([13]; 0.030 kg/ha): 95 | LOLPE weed control rating ([13]; 0.060 kg/ha): 99 | LOLPE weed control rating ([13]; 0.1 kg/ha): 100 | LOLPE weed control rating ([13]; 0.240 kg/ha): 100 | POLCO weed control rating ([14]; 0.015 kg/ha): 92 | POLCO weed control rating ([14]; 0.030 kg/ha): 93 | POLCO weed control rating ([14]; 0.060 kg/ha): 100 | POLCO weed control rating ([14]; 0.1 kg/ha): 100 | POLCO weed control rating ([14]; 0.240 kg/ha): 100 | STEME weed control rating ([15]; 0.030 kg/ha): 90 | STEME weed control rating ([15]; 0.060 kg/ha): 100 | STEME weed control rating ([15]; 0.1 kg/ha): 100 | STEME weed control rating ([15]; 0.240 kg/ha): 100 | APESV weed control rating ([16]; 0.015 kg/ha): 100 | APESV weed control rating ([16]; 0.030 kg/ha): 100 | APESV weed control rating ([16]; 0.060 kg/ha): 100 | APESV weed control rating ([16]; 0.1 kg/ha): 100 | APESV weed control rating ([16]; 0.240 kg/ha): 100 | MATIN weed control rating ([17]; 0.015 kg/ha): 99 | MATIN weed control rating ([17]; 0.030 kg/ha): 99 | MATIN weed control rating ([17]; 0.060 kg/ha): 100 | MATIN weed control rating ([17]; 0.1 kg/ha): 100 | MATIN weed control rating ([17]; 0.240 kg/ha): 100 | ALOMY weed control rating ([18]; 0.015 kg/ha): 65 | ALOMY weed control rating ([18]; 0.030 kg/ha): 92 | ALOMY weed control rating ([18]; 0.060 kg/ha): 100 | ALOMY weed control rating ([18]; 0.1 kg/ha): 100 | ALOMY weed control rating ([18]; 0.240 kg/ha): 100 | SETVI weed control rating ([19]; 0.015 kg/ha): 93 | SETVI weed control rating ([19]; 0.030 kg/ha): 100 | SETVI weed control rating ([19]; 0.060 kg/ha): 100 | SETVI weed control rating ([19]; 0.1 kg/ha): 100 | SETVI weed control rating ([19]; 0.240 kg/ha): 100 | LAMPU weed control rating ([20]; 0.015 kg/ha): 100 | LAMPU weed control rating ([20]; 0.030 kg/ha): 100 | LAMPU weed control rating ([20]; 0.060 kg/ha): 100 | LAMPU weed control rating ([20]; 0.1 kg/ha): 100 | LAMPU weed control rating ([20]; 0.240 kg/ha): 100

Source: patent publication US7008905B2, “Method of combating undesired plant growth on cereals” (BASF Aktiengesellschaft, priority 2000, dated 2006)
